# Source: patent US11129845B2, “Compositions and methods for the delivery of nucleic acids” (CASE WESTERN RESERVE UNIVERSITY, priority 2014, dated 2021)
# Key:
# [1] = system: MDA-MB-231 cells; experiment: MTT cytotoxicity with PTX after siRNA nanoparticles, MDA-MB-231; format: cell-based; settings: Homo sapiens; MDA-MB-231, 0.5 ng/mL PTX 48 hours; combination: nanoparticles 48 hours first; read-out: cell viability (MTT)
# Description: (§1) Cytotoxicity assays were performed in a 96-well plate as described previously, by seeding 2,000 MDA-MB-231 or MDA-MB-231.DR cells/well. […] Next, the wells were washed twice with PBS and incubation with various concentrations of PTX in fresh media. After 2 additional days, the MTT reagent (Invitrogen) was added to the cells for 4 hours followed by the addition of SDS-HCl and further incubation for 4 hours. The absorbance of each well was measured at 570 nm using a SpectraMax spectrophotometer (Molecular Devices). Cellular viability was calculated as the average of the set of triplicates for each PTX concentration and was normalized relative to the no treatment control. Drug resistance was confirmed with an MTT assay to determine the IC50 of paclitaxel. The IC50 was defined as the dose of drug required to inhibit cell viability by 50%.
# [2] = system: MDA-MB-231.DR cells; experiment: MTT cytotoxicity with PTX after siRNA nanoparticles, MDA-MB-231.DR; format: cell-based; settings: Homo sapiens, 0.5 ng/mL PTX 48 hours, combination: nanoparticles 48 hours first, read-out: cell viability (MTT)
# Description: as §1
# [3] = system: Red blood cells (RBCs); experiment: pH-sensitive hemolytic activity of carrier library; format: cell-based, rat; settings: all N/P ratios (5, 10, 15) and pHs (7.4, 6.5, 5.4) tested
# Description: Hemolytic activity of each carrier was determined to verify the pH-sensitive membrane disruption capabilities of each carrier in the delivery system. Red blood cells (RBCs) extracted from rats were purchased from Innovative Research Inc. (Novi, Mich.) and diluted 1:50 in PBS solutions of pHs=5.4, 6.5, or 7.4. A total of 100 μL of nanoparticles were created at N/P ratios of 5, 10, 15 and then incubated with 100 μL of diluted RBCs at 37° C. for 2 h. Nanoparticles were formulated so that the final amine concentration for all the samples, after mixing with the RBCs, was 150 μM. Multiple pHs were tested to predict if the nanoparticles could disrupt membranes of the endosomal-lysosomal compartments (pH=5-6), without affecting the integrity of the outer cell membrane prior to endocytosis (pH=7.4). The absorbance of each test sample was measured on a SpectraMax spectrophotometer at a wavelength of 540 nm in order to determine the amount of hemoglobin released from the RBCs, due to membrane destabilization, relative to that achieved by a positive control treatment of 1% (v/v) Triton-X100 surfactant during the 2 hour incubation period.
# [4] = Zeta-potential of siRNA-lipid complexes (Malvern Zetasizer); format: physicochemical
# Description: (§2) The cationic lipid carriers are dissolved in ethanol at a stock concentration of 2.5 mM, while all siRNA is reconstituted in nuclease-free water at a 0.25 μg/μL (18.8 μM) concentration. Nanoparticles are formulated by mixing the carriers with siRNA for a period of 30 min in RNase-free phosphate buffer saline (PBS) at pre-specified N/P ratios (N=number of protonable amines in lipid, P=number of phosphate groups in the siRNA). In preparing the lipoplexes, proper dilutions were made such that the volume ratio of ethanol:water was kept constant at 1:20. Minimizing the amount of ethanol is important because it is effective in dissolving lipids, thus inhibiting particle formation. The diameters (as determined by dynamic light scattering) and zeta potentials of all nanoparticles were analyzed using a Malvern Zetasizer instrument at pH=7.4. siRNA encapsulation efficiency was calculated using a RiboGreen fluorescence-based assay from Invitrogen, designed specifically for detection of free RNA at […] wavelengths of 480 and 520 nm, respectively. Nanoparticles were created with all carriers in the library so that final siRNA concentrations were 1.6 μg/mL. A linear standard curve was utilized to calculate the encapsulation efficiencies from signal intensities measured by a SpectraMax microplate reader (Molecular Devices).
# [5] = system: HT29 colon carcinoma cells; experiment: Cellular uptake of Alexa Fluor 488-siRNA via flow cytometry; format: cell-based, human; settings: HT29, N/P=18, 4 h, 100 nM Alexa Fluor 488-siRNA
# Description: Flow cytometry was used to investigate the cellular uptake of our delivery system in HT29 colon carcinoma cells. All carriers in the library were formulated into nanoparticles by condensing Alexa Fluor 488-labeled siRNA at the optimal N/P ratio determined by the above luciferase knockdown studies. Approximately 50,000 cancer cells were seeded in 6-well plates and allowed to grow until 30-50% confluence was reached. The cancer cells were transfected with a 100 nM siRNA dose in serum-free media. After 4 h, the transfection media were aspirated and the cells were washed twice with PBS. The cells were then trypsinized, collected, and fixed with 2% paraformaldehyde in PBS, prior to flow cytometric analysis.
# [6] = Nanoparticle diameter and polydispersity by dynamic light scattering (Malvern Zetasizer); format: physicochemical; settings: for Nanoparticle diameter as measured by dynamic light scattering: siRNA-lipid complexes
# Description: as §2
"Zeta-potential of siRNA-lipid complexes ([4]; pH = 7.4, N/P = 2) [mV]","Zeta-potential of siRNA-lipid complexes ([4]; pH = 7.4, N/P = 5) [mV]","Zeta-potential of siRNA-lipid complexes ([4]; pH = 7.4, N/P = 8) [mV]","Zeta-potential of siRNA-lipid complexes ([4]; pH = 7.4, N/P = 10) [mV]","Zeta-potential of siRNA-lipid complexes ([4]; pH = 7.4, N/P = 15) [mV]",Polydispersity of siRNA-lipid complexes ([6]; N/P = 2),Polydispersity of siRNA-lipid complexes ([6]; N/P = 5),Polydispersity of siRNA-lipid complexes ([6]; N/P = 8),Polydispersity of siRNA-lipid complexes ([6]; N/P = 10),Polydispersity of siRNA-lipid complexes ([6]; N/P = 15),Nanoparticle diameter as measured by dynamic light scattering ([6]; N/P = 2) [nm],Nanoparticle diameter as measured by dynamic light scattering ([6]; N/P = 5) [nm],Nanoparticle diameter as measured by dynamic light scattering ([6]; N/P = 8) [nm],Nanoparticle diameter as measured by dynamic light scattering ([6]; N/P = 10) [nm],Nanoparticle diameter as measured by dynamic light scattering ([6]; N/P = 15) [nm],Compound,viability at 0.0005 µg/mL [1] [%],viability at 0.0005 µg/mL [2] [%],hemolytic activity relative to Triton X-100 [3],"cellular uptake, mean fluorescence intensity (MFI) [5]"
–,–,–,–,–,–,–,–,–,–,–,–,–,–,–,"CC(=O)O[C@H]1C(=O)[C@@]2(C)[C@H]([C@H](OC(=O)c3ccccc3)[C@]3(O)C[C@H](OC(=O)[C@H](O)[C@@H](NC(=O)c4ccccc4)c4ccccc4)C(C)=C1C3(C)C)[C@]1(OC(C)=O)CO[C@@H]1C[C@@H]2O [PTX, paclitaxel]",44.6 ± 6.6,80.7 ± 2.9,–,–
−28.35 ± 3.61,26.89 ± 1.85,26.03 ± 2.25,28.59 ± 2.25,17.15 ± 2.99,0.298,0.233,0.140,0.184,0.180,482 ± 40,185 ± 22,51 ± 14,50 ± 12,48 ± 12,CCCCC/C=C\C/C=C\CCCCCCCC(=O)NC(CS)C(=O)NCCNC(=O)CCN(CCCNCCCCNCCCN)CCC(=O)NCCNC(=O)C(CS)NC(=O)CCCCCCC/C=C\C/C=C\CCCCC (stereo not shown) [SCLn],–,–,greatest hemolytic activity,4066±185
